In US12721835B2, “Anticoccidial composition comprising violacein, and use thereof” (CJ CHEILJEDANG CORPORATION, priority 2020, dated 2026):

Tests used:
Eimeria tenella [1] = assay: In vivo anticoccidial activity upon single inoculation (broilers, formulated feed); design: key to ACI: ACI out of 200 = survival% + RWG% − lesion×10 − oocyst index; details: Eimeria tenella infection, feed 1 ppm
Procedure: An in vivo anticoccidial efficacy evaluation test was performed in an animal experiment facility in Gyeongsangnam-do, South Korea. One-day-old female Ross broilers were individually weighed and randomly divided into groups to use in an experiment. Matters and conditions for experimental design were described in Table 2.
A breeding farm was managed according to the Korean poultry breeding management guidelines. Cages and the breeding farm were cleaned and disinfected before starting the test. The temperature of […] and the humidity of 40 to 50% of the breeding farm were maintained, and it was continuously monitored.
For the feed, Korea Feed Al-choi product was used, and each material (diclazuril (Yuhan Corporation YUHAN DICLA product), salinomycin (Cheil Bio Cheilsalino-60 product), violacein (CJ Cheiljedang)) was added to the feed, respectively, at a concentration described in Table 3 below to be self-mixed. Antibiotics and supplements were not used in general feed and mixed feed, and no anticoccidial agent other than each material was added. Broilers were fed ad libitum throughout the experiment period. After putting 15 1-day-age broilers in cages randomly placed for each of the control group or test group and breeding, general feed (Al-choi product) was fed for 7 days, and then the mixed feed prepared above was ingested by dividing by control group or test group. The non-infected negative control group used 1cage, and the infected negative control group and experimental group used 2cage to progress the experiment.
The feed formulation administered to the control group (negative control group or positive control group) and test group and whether coccidiosis was induced by Eimeria tenella were described in Table 3 below.
14-day-old broilers were orally inoculated with 10,000 oocysts (90% sporulated Eimeria tenella oocysts) per individual to induce coccidiosis.
The anticoccidial efficacy by test group designed in Example 1-2 above was shown as an anticoccidial index (ACI), and the anticoccidial index was calculated by Equation 2 below. The ACI score is out of 200 points, and the higher the ACI score, the more excellent the anticoccidial ability, and when it is 120 points or more to less than 140 points, it is determined that it is effective as an anticoccidial material, and when it is 140 points or more to less than 160 points, it is determined that it is excellent as an anticoccidial material, and when it is 160 points or more, it is determined that the anticoccidial effect is very excellent (Luis Miguel De Pablos et al., Anticoccidial activity of maslinic acid against infection with Eimeria tenella in chickens, Parasitol Res, 2010). Anticoccidial index (ACI)=(survival rate after challenge inoculation(%))+(daily weight gain compared to negative control group (RWG,%))−(lesion score×10)−(fecal oocyst excretion amount index) (Equation 2) • 1) Survival rate: the number of dead individuals was recorded daily, and post mortem autopsy was performed to determine a cause of mortality, and the number of individuals who died due to causes other than coccidiosis was excluded. The survival rate (%) up to the 8th day after challenge inoculation was used for anticoccidial index calculation. The measured survival rate was described in Table 4 below. • 2) Daily weight gain: body weight was measured for each cage before challenge inoculation with a protozoan into an individual and at the 7th day after challenge inoculation, and the difference was divided by the number of days to calculate the daily weight gain (ADG, g/d). ‘Daily weight gain compared to the negative control group (RWG, %)’ which was calculated by dividing the daily weight gain (ADG, average daily gain; g/d) of each experimental group by the weight gain (ADG, g/d) of the non-infected negative control group and multiplying by 100 was used for anticoccidial index calculation. […]

Eimeria tenella [2] = assay: Intracellular protozoan propagation inhibition in MDBK cells (ITS-1 PCR); format: cell-based; details: MDBK cells, treated after invasion, 24 hours, read-out: Intracellular protozoan propagation inhibitory effect (%)
Procedure: (§1) In the present example, using MDBK cell line which is a representative animal cell known to cause Eimeria infection and propagation, the inhibition ability of intracellular protozoan invasion and intracellular protozoal propagation of the violacein was investigated.
100,000 MDBK cells (purchased from ATCC) were aliquoted in a 24-well plate, and then incubated at a temperature of 37° C. for 12 hours. The protozoan of Eimeria tenella was obtained similar to the method of Example 3 above. 200,000 protozoa per one well were added to wells in which cells were aliquoted, and cultured at a temperature of 41° C. for 24 hours, and then the cells were washed using PBS solution twice to remove protozoa which were not attached to the cells. Each material (violacein and anticoccidial agents, salinomycin, diclazuril and gallic acid) was treated to the cells by concentration, and further cultured at a temperature of 41° C. for 24 hours. A negative control group is a MDBK cell infected by protozoa, and a positive control group means a group in which salinomycin and diclazuril solution was incubated with the Eimeria tenella protozoan. After removing the cells and protozoa inside the cells through pipetting, DNA was extracted from the cells, and PCR was performed using E. tenella ITS-1 (Internal transcribed spacer-1) gene-specific primers. The sequences of the used primers were described in Table 9 above.
The intracellular protozoan propagation inhibition rate (%) through treatment of the material was calculated by comparing Ct values in the material treatment groups compared to the negative control group, and the result was shown in FIG. 3 and Table 10.

Eimeria maxima = assay: Protozoan (sporozoite) direct killing effect; format: cell-based; details: tested 1 to 500 ppm, vs PBS control
Procedure: (§2) In the present example, protozoan (sporozoite) direct killing ability evaluation was conducted against 3 representative Eimeria kinds known to be infected in most farms (E. tenella, E. acervulina, E. maxima).
(§3) A certain amount of oocysts of each coccidial protozoan was put in a tube containing glass beads and pulverized, and then to remove the crushed oocyst cell wall and other debris, internal sporocysts were purified using the percoll density gradient, and washed with PBS solution. A reagent comprising sodium taurocholic acid (Sigma aldrich, USA) and trypsin (Gibco, USA), respectively, was treated to sporocysts of Eimeria tenella, Eimeria acervulina and Eimeria maxima for excystation of the internal sporozoites, and they were incubated, and then they were washed with PBS solution once and the protozoa were obtained.
(§4) After reacting the violacein and anticoccidial agents, salinomycin, diclazuril and gallic acid (hereinafter, material) with 3 kinds of Eimeria protozoa at various concentrations of 1 to 500 ppm, respectively, only alive protozoa (sporozoites) were counted through microscopic observation. […]

Eimeria tenella [3] = assay: Protozoan (sporozoite) direct killing effect; format: cell-based; details: tested 1 to 500 ppm, vs PBS control
Procedure: as §2, §3, §4

Eimeria acervulina = assay: Protozoan (sporozoite) direct killing effect; format: cell-based; details: tested 1 to 500 ppm, vs PBS control
Procedure: as §2, §3, §4

Eimeria tenella [4] = assay: Cell invasion inhibition of protozoa in MDBK cells (ITS-1 PCR); format: cell-based; details: MDBK cells, 41° C. 24 hours, read-out: Cell invasion inhibitory effect of protozoa (%)
Procedure: as §1
100,000 MDBK cells (purchased from ATCC) were aliquoted in a 24-well plate, and then incubated at a temperature of 37° C. for 12 hours. The protozoan of Eimeria tenella was obtained similar to the method of Example 3 above. 200,000 protozoa per one well were added to wells in which cells were aliquoted, and each material (violacein and anticoccidial agents, salinomycin, diclazuril and gallic acid) was treated to the cells by concentration, and cultured at a temperature of 41° C. for 24 hours. A negative control group is a MDBK cell infected by protozoa of Eimeria tenella, and a positive control group means a group in which salinomycin, diclazuril or gallic acid solution was incubated with the Eimeria tenella protozoan. […] After removing the cells and protozoa inside the cells through pipetting, DNA was extracted from the cells, and PCR was performed using E. tenella ITS-1 (Internal transcribed spacer-1) gene-specific primers. The sequences of the used primers were described in Table 9 below.
Ct values before/after washing for each material were compared and corrected with the ΔCt value of the negative control group to calculate the cell invasion inhibition rate (%) of the protozoa through treatment of each material, and the result was shown in FIG. 3 and Table 10 below.

## N#CC(c1ccc(Cl)cc1)c1c(Cl)cc(-n2ncc(=O)[nH]c2=O)cc1Cl (stereo not shown) [Diclazuril, diclazuril, reference compound]
Eimeria tenella [1]
  ADG(g/d) after challenge inoculation: 61 g/day
  Oocyst index: 10
Eimeria tenella [1]; appendix, scale 0-4, 8th day
  Lesion score: 1.7
Eimeria tenella [1]; feces day 6-8
  Oocyst excretion amount/g: 1.3e+08 g⁻¹
Eimeria tenella [1]; lesion score x 10
  Lesion index: 17
Eimeria tenella [1]; out of 200 points
  ACI: 169
Eimeria tenella [1]; up to 8th day
  Survival rate after challenge inoculation (%): 100%
Eimeria tenella [1]; vs non-infected negative control
  RWG(%): 96%
Eimeria tenella [2]; 0.5 ppm
  inhibition at 0.5 ppm: 45.9%
Eimeria tenella [2]; 1 ppm
  inhibition at 1 ppm: 52.9%
Eimeria maxima
  Minimum concentration for killing 50% protozoa (sporozoites) (ppm): >500 ppm
Eimeria tenella [3]
  Minimum concentration for killing 50% protozoa (sporozoites) (ppm): >500 ppm
Eimeria acervulina
  Minimum concentration for killing 50% protozoa (sporozoites) (ppm): 500 ppm
Eimeria tenella [4]; 0.5 ppm
  inhibition at 0.5 ppm: 0%
Eimeria tenella [4]; 1 ppm
  inhibition at 1 ppm: 6.3%

## O=C(O)c1cc(O)c(O)c(O)c1 [Gallic acid, gallic acid]
Eimeria tenella [2]; 5 ppm
  inhibition at 5 ppm: 0%
Eimeria tenella [2]; 10 ppm
  inhibition at 10 ppm: 0%
Eimeria maxima
  Minimum concentration for killing 50% protozoa (sporozoites) (ppm): >500 ppm
Eimeria tenella [3]
  Minimum concentration for killing 50% protozoa (sporozoites) (ppm): >500 ppm
Eimeria acervulina
  Minimum concentration for killing 50% protozoa (sporozoites) (ppm): >500 ppm
Eimeria tenella [4]; 5 ppm
  inhibition at 5 ppm: 76%
Eimeria tenella [4]; 10 ppm
  inhibition at 10 ppm: 90.1%
